The target in one assay is T1, hTLR7 (Homo sapiens, UniProt Q9NYK1).
T1 construct: host or cells: HEK-Blue hTLR7 (HEK293-derived reporter line)
T1 sequence (Q9NYK1 27-1049): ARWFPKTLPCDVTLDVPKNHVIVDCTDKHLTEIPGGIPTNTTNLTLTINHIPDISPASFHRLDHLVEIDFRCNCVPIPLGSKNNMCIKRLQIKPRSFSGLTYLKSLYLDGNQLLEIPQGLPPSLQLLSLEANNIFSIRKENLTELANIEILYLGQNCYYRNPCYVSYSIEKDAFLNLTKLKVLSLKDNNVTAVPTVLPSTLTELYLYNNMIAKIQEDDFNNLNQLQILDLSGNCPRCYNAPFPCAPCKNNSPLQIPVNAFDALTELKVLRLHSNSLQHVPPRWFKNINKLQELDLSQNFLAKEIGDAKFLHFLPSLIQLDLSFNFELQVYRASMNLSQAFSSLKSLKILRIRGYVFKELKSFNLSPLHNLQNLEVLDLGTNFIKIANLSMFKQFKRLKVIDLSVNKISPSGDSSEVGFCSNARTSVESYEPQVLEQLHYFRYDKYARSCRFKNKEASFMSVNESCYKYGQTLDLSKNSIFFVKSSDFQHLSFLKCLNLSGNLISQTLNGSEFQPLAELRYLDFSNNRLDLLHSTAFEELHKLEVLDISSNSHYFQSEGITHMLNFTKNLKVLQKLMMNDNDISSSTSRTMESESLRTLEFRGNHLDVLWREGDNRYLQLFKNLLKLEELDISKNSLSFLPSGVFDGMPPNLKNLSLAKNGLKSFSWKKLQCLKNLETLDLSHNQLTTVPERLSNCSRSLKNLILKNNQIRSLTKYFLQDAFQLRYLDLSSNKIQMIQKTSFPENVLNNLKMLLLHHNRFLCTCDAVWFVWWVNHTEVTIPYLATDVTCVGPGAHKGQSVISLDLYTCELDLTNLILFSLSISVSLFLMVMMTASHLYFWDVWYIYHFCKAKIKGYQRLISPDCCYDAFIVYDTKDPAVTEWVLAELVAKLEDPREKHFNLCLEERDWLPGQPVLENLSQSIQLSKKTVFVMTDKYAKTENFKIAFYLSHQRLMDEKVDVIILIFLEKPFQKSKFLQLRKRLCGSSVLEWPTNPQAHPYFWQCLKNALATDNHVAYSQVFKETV
Kind of assay: Activation activity test of hTLR7 (HEK-Blue hTLR7 cells, QUANTI-Blue OD650). The format is cell-based. Conditions: 24 hours incubation, read-out: TLR7 (EC50). The method, then: (§1) Effect Example 1: Activation Activity Test of hTLR7 and hTLR8
(§2) Cell lines: HEK-Blue™ hTLR7 and HEK-Blue™ hTLR8 (InvivoGen Co.)
(§3) Primary reagents: QUANTI-Blue™ (InvivoGen) and ATPlite 1 Step (PerkinElmer)
(§4) Primary instruments: Automatic Liquid Handling Workstation (Labcyte, Model: Echo), Cell Counter (Countstar, IC1000) and Multifunctional Enzyme Marker (Molecular Device, Flexstation III).
(§5) 2.1 The tested compounds were formulated into a 60 mM concentrated stock solution in DMSO and stored in a nitrogen cabinet.
(§6) 2.3 The T150 cultured cells were taken out from the CO2 incubator and the cell culture supernatant was discarded. The cells were washed with PBS once, followed by addition of about 10 mL of the culture solution. The cells were dissociated by patting the cell culture flask, and gently blown to even by a pipette.
(§7) The cells were counted, and the cell suspension was adjusted to 200,000 cells/mL by the culture solution. Thereafter, 200 μL of diluted cells was added to each well in a 96-well plate containing the compound (40,000 cells/well).
(§8) 2.4 The compounds and cells were incubated in a 5% CO2 incubator at 37° C. for 24 hours.
(§9) 2.5 Compound activity assay: 20 μl of the cell supernatant of each well after induction was added to a cell culture plate containing 180 μL of reagent QUANTI-Blue™, and incubated at 37° C. for 1.5 hours. Thereafter, the optical density absorption (OD650) of each well at 650 nm was measured using a Multifunctional Enzyme Marker: Flexstation III.
(§10) 2.6 Compound Activity: OD650 values were analyzed using GraphPad Prism software and the dose-response curves for the compound were fitted to calculate the EC50 values of the compound.

The target of another assay is T2, hTLR8 (Homo sapiens, UniProt Q9NR97).
T2 construct: host or cells: HEK-Blue hTLR8 (HEK293-derived reporter line)
T2 sequence (Q9NR97 27-1041): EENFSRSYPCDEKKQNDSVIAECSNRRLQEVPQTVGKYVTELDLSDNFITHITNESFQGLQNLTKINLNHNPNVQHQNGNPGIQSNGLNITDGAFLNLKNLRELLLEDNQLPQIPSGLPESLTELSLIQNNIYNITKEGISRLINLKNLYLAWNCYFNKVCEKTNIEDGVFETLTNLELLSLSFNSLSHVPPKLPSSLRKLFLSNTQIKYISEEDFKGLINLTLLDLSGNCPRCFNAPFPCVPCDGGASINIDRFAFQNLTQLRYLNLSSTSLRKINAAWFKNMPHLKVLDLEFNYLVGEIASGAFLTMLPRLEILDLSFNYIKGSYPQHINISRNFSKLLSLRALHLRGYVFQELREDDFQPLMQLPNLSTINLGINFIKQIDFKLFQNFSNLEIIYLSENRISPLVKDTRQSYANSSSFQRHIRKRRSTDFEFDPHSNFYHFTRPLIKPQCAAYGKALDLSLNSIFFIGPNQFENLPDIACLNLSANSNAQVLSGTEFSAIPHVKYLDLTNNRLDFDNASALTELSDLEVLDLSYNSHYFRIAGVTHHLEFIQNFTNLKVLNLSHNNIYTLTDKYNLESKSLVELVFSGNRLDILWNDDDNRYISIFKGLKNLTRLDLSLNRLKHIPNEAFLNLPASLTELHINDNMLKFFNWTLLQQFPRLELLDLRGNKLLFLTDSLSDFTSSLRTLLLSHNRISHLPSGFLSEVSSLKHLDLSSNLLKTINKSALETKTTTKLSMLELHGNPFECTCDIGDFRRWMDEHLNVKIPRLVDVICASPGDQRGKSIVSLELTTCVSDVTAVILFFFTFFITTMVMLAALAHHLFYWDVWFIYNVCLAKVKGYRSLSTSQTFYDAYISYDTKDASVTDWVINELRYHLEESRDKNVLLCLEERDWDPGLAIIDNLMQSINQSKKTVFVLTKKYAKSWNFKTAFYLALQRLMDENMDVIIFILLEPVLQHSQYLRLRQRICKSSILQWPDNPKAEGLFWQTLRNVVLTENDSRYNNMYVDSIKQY
Nature of the assay: Activation activity test of hTLR8 (HEK-Blue hTLR8 cells, QUANTI-Blue OD650). The format is cell-based. Conditions: for EC50: HEK-Blue hTLR8 cells, 24 hours incubation, read-out: TLR8 (EC50). The method, then:
as §1, §2, §3, §4, §5, §6, §7, §8, §9, §10

SMILES strings stand for the structures.

The source of these data is patent publication US11084818B2 (HEPO PHARMACEUTICAL CO., LTD., priority 2016, dated 2021).

The term EC50 denotes the midpoint of the concentration-response curve. In the case of `COCCOc1ncc2[nH]c(=O)n(Cc3ccc(CN4C[C@H]5CN(C)C[C@H]5C4)cc3)c2n1` [Example 12], the EC50 on hTLR7 is 1 to 10 µM; at hTLR8 it was more than 100 µM.
Regarding `COCCOc1ncc2[nH]c(=S)n(Cc3ccc(CN4CCCC4)cc3)c2n1` [Example 60, 2-(2-methoxyethoxy)-9-(4-(pyrrolidin-1-ylmethyl)benzyl)-7,9-dihydro-8H-purin-8-thione], the EC50 at hTLR7 and on hTLR8 was more than 100 µM each time.
For `O=c1[nH]c2cnc(OCC3CCOCC3)nc2n1Cc1cccc(CN2CCCC2)c1` [Example 28, 9-(3-(pyrrolidin-1-ylmethyl)benzyl)-2-((tetrahydro-2H-pyran-4-yl)methoxy)-7,9-dihydro-8H-purin-8-one], the EC50 on hTLR7 and at hTLR8 was more than 100 µM throughout.
In the case of `COCCOc1ncc2[nH]c(=O)n(Cc3ccc([C@H](C)N4CCCC4)cc3)c2n1` [Example 41, (S)-2-(2-methoxyethoxy)-9-(4-(1-(pyrrolidin-1-yl)ethyl)benzyl)-7,9-dihydro-8H-purin-8-one], the EC50 at hTLR7 is 0.001 to 1 µM; on hTLR8, more than 100 µM.
On the same counts, the results for `COCCOc1ncc2[nH]c(=O)n(Cc3ccc(C(C)N4CCCCC4)cc3)c2n1` (stereo not drawn) [Example 15, 2-(2-methoxyethoxy)-9-(4-(1-(piperidin-1-yl)ethyl)benzyl)-7,9-dihydro-8H-purin-8-one] are 0.001 to 1 µM and more than 100 µM.
On the same counts, the results for `COCCNc1ncc2[nH]c(=O)n(Cc3cccc(CN4CCCC4)c3)c2n1` [Example 32, 2-((2-methoxyethyl)amine)-9-(3-(pyrrolidin-1-ylmethyl)benzyl)-7,9-dihydro-8H-purin-8-one] are more than 100 µM and more than 100 µM.
Take `COCCOc1ncc2[nH]c(=O)n(Cc3ccc(CN(C)C)cc3)c2n1` [Example 9, 9-(4-((dimethylamino)methyl)benzyl)-2-(2-methoxyethoxy)-7,9-dihydro-8H-purin-8-one]: the EC50 was 1 to 10 µM on hTLR7 and more than 100 µM on hTLR8.
In the case of `COCCOc1nc(F)c2[nH]c(=O)n(Cc3ccc(CN4CCCC4)cc3)c2n1` [Example 70, 6-fluoro-2-(2-methoxyethoxy)-9-(4-(pyrrolidin-1-ylmethyl)benzyl)-7,9-dihydro-8H-purin-8-one], the EC50 is 10 to 100 µM at hTLR7 and more than 100 µM on hTLR8.
On to `COCCOCCOc1ncc2[nH]c(=O)n(Cc3cccc(CN4CCCC4)c3)c2n1` [Example 30, 2-(2-(2-methoxyethoxy)ethoxy)-9-(3-(pyrrolidin-1-ylmethyl)benzyl)-7,9-dihydro-8H-purin-8-one], for which the concentration for a half-maximal effect (EC50) at hTLR7 and at hTLR8 was more than 100 µM each time.
Regarding `COCCOc1ccc2[nH]c(=O)n(Cc3ccc(CN4CCCC4)cc3)c2n1` [Example 40, 5-(2-methoxyethoxy)-3-(4-(pyrrolidin-1-ylmethyl)benzyl)-1,3-dihydro-2H-imidazole[4,5-b]pyridin-2-one], the EC50 on hTLR7 and on hTLR8 was more than 100 µM throughout.
As for `CCCn1c(=O)n(Cc2ccc(CN3CCCC3)cc2)c2nc(OCCOC)ncc21` [Example 57, 9-(4-(pyrrolidin-1-ylmethyl)benzyl)-7-propyl-2-(2-methoxyethoxy)-7,9-dihydro-8H-purin-8-one], the EC50 at hTLR7 and on hTLR8 was more than 100 µM each time.
As for `COCCCCOc1ncc2[nH]c(=O)n(Cc3ccc(CN4CCCC4)cc3)c2n1` [Example 47, 9-(4-(pyrrolidin-1-ylmethyl)benzyl)-2-(4-methoxybutoxy)-7,9-dihydro-8H-purin-8-one], the EC50 was 1 to 10 µM at hTLR7 and more than 100 µM on hTLR8.
On to `COC(C)CCOc1ncc2[nH]c(=O)n(Cc3ccc(CN4CCCC4)cc3)c2n1` (stereo not drawn) [Example 49, 9-(4-(pyrrolidin-1-ylmethyl)benzyl)-2-(3-methoxybutoxy)-7,9-dihydro-8H-purin-8-one], for which the concentration for a half-maximal effect (EC50) at hTLR7 is 0.001 to 1 µM; at hTLR8, more than 100 µM.
As for `CCC(c1ccc(Cn2c(=O)[nH]c3cnc(OCCOC)nc32)cc1)N1CCCC1` (stereo not drawn) [Example 17], the concentration giving a half-maximal response (EC50) at hTLR7 was 1 to 10 µM; at hTLR8 it was more than 100 µM.
As to `COCCOc1ncc2[nH]c(=O)n(C(C)c3ccc(CN4CCCC4)cc3)c2n1` (stereo not drawn) [Example 36], the figures for the half-maximal effective concentration (EC50) on hTLR7 and on hTLR8 were 10 to 100 µM and more than 100 µM, respectively.
Turning to `O=c1[nH]c2cnc(OCCCOC(F)(F)F)nc2n1Cc1ccc(CN2CCCC2)cc1` [Example 50, 9-(4-(pyrrolidin-1-ylmethyl)benzyl)-2-(3-(trifluoromethoxy)propoxy)-7,9-dihydro-8H-purin-8-one], the results for the EC50 at hTLR7 and on hTLR8 were 0.001 to 1 µM and more than 100 µM, respectively.
As to `COCCOc1ncc2[nH]c(=O)n(Cc3cccc(CN4CC[C@@H](F)C4)c3)c2n1` [Example 22, (R)-9-(3-((3-fluoropyrrolidin-1-yl)methyl)benzyl)-2-(2-methoxyethoxy)-7,9-dihydro-8H-purin-8-one], the EC50 at hTLR7 was 10 to 100 µM; at hTLR8 it was more than 100 µM.
Take `COCCOc1ncc2[nH]c(=O)n(Cc3ccc(CN4CCC5(CC4)COC5)cc3)c2n1` [Example 11, 9-(4-((2-oxa-7-azaspiro[3.5]nonan-7-yl)methyl)benzyl)-2-(2-methoxyethoxy)-7,9-dihydro-8H-purin-8-one]: the EC50 was 1 to 10 µM on hTLR7 and more than 100 µM at hTLR8.
Consider `O=c1[nH]c2cnc(OCCOCC(F)(F)F)nc2n1Cc1ccc(CN2CCCC2)cc1` [Example 48, 9-(4-(pyrrolidin-1-ylmethyl)benzyl)-2-(2-(2,2,2-trifluoroethoxy)ethoxy)-7,9-dihydro-8H-purin-8-one], for which the results for the EC50 at hTLR7 and on hTLR8 were 0.001 to 1 µM and more than 100 µM, respectively.
`CCOCc1nc2c(N)nc3ccccc3c2n1CC(C)(C)O` [Example R848, reference compound]: the “agonistic activity against TLR8” value on hTLR8 (in words, from Table 1) was “strong agonistic activity”.
